Experiments:
MCP-1 = assay: IFN-α induced MCP-1 secretion from human monocytes; format: cell-based; settings: 500 IU/ml IFN-α, 48 h (FIG. 6B)
Description: (§1) Freshly isolated monocytes were treated with 500 IU/ml IFN-α with or without indicated compounds for 48 h. Supernatants were collected and MCP-1 and IP-10 levels were analyzed by Searchlight Inc. Percentage inhibition represents inhibition of the upregulation of chemokine induced by IFN-α compared to the vehicle control. Panel A: Effect of compounds on IP-10 secretion. Panel B: Effect of compounds on MCP-1 secretion. Each bar represents the average+/−SEM of three independent experiments. Panel C: IKK2 inhibitor IV blocked IFN-α induced IP-10 protein level in vivo. Female NZBW/F1 mice were treated with either antibody (i.p. injection 30 mg/kg) or IKK2 inhibitor (45 mg/kg BID) as described in materials and methods. Adenovirus-IFN-a (1×10^10 viral particles) was administrated i.v. at time 0. Samples were collected 6 h post-stimulation, IP-10 protein level was measured by ELISA. Data representative of two experiments.
(§2) Multiple chemokines, including monocyte chemo-attractant protein-1 (MCP-1) and activated T cell chemokine interferon inducible protein 10 (IP-10) regulate leukocytes migration and infiltration into inflammated organs^34. Expression of MCP-1 and IP-10 are elevated in serum of SLE patients^34, 35 and in monocytes of healthy donors stimulated in vitro by IFN-α^36. Consequently, the effect of Apicidin 1a, IKK2 inhibitor IV, and JAK inhibitors in IP-10 and MCP-1 expression induced by IFN-α from human monocytes was examined.
(§3) For monocyte differentiation assays, human monocytes were isolated from the blood of healthy donors according to manufactory's instructions (Miltenyi Biotec Inc; Auburn Calif.). 5×10^5 freshly prepared monocytes were pre-incubated with compounds or vehicle control for 30 min. […] Cell surface protein were stained with FITC-labeled anti-CD80, PE-labeled anti-CD123, PEcy7 labeled anti-CD38, APC cy7 labeled MHC class II (all BD, San Jose, Calif.) and analyzed on a FACS Calibur flow cytometer (BD). Cytokine and chemokine levels in supernatants from monocyte differentiation assays were measured using searchlight human cytokine array (Pierce Inc, Woburn, Mass.). […]

[1] = test system: CD80, CD123 and CD38 cell surface expression on monocytes; assay: IFN-α induced primary human monocyte activation/differentiation, cell surface markers by FACS; format: cell-based; settings: 500 IU/ml IFN-α, 48 h, FACS (FIG. 5)
Description: Freshly isolated monocytes from healthy donor were pre-incubated with compounds or vehicle control for 0.5 hour before stimulation with 500 IU/ml IFN-α. Cell surface expression of CD80, CD123 and CD38 was evaluated by FACS 48 h post-stimulation. Each bar represents the average+/−SEM of three independent experiments.
Since deregulated differentiation of DCs induced by IFN-α may be a critical contributing factor in SLE^13, the impact of Apicidin 1a, IKK2 inhibitor IV, and JAK inhibitors in DC differentiation was examined. Human monocytes were stimulated with IFN-α and the expression of CD38 CD80 and CD123 differentiation markers was monitored^33.
For monocyte differentiation assays, human monocytes were isolated from the blood of healthy donors according to manufactory's instructions (Miltenyi Biotec Inc; Auburn Calif.). 5×10^5 freshly prepared monocytes were pre-incubated with compounds or vehicle control for 30 min. Cells were then incubated in RPMI 1640 medium (Invitrogen, Carlsbad, Calif.) including 10% fetal calf serum (Invitrogen) supplemented with 500 IU/ml IFN-α 2a for 48 hr. Cell surface protein were stained with FITC-labeled anti-CD80, PE-labeled anti-CD123, PEcy7 labeled anti-CD38, APC cy7 labeled MHC class II (all BD, San Jose, Calif.) and analyzed on a FACS Calibur flow cytometer (BD). Cytokine and chemokine levels in supernatants from monocyte differentiation assays were measured using searchlight human cytokine array (Pierce Inc, Woburn, Mass.). (see FIG. 5)

[2] = test system: SLE-associated gene signature as induced by SLE serum; assay: SLE serum-induced IFN-α gene signature in freshly isolated monocytes (HITS qPCR); format: cell-based, human; settings: for Percentage inhibition of the six most robustly induced IFN-α signature genes induced by SLE serum: 1 μm, monocytes stimulated with 50% SLE patient serum, mean of six genes vs vehicle control; for Upregulation of the six most robustly induced IFN-α signature gene set by 50% lupus serum (in words): freshly isolated monocytes, dose dependent (FIG. 4)
Text: RNA from lysed cells was examined by qPCR analysis in HITS assay. […] Each bar represents the average+/−SEM of three independent experiments using serum from different SLE patients.
Stimulation of healthy donor PBMCs with serum isolated from SLE patients induces the up-regulation of IFN-α pathway-associated genes (Interfon-induced genes, IFIGs), such as MX1^31. Furthermore, expression of IFIG correlates with disease severity and organ involvement^31, 32. To further evaluate the role of small molecular inhibitors on the type I IFN gene signature, freshly isolated monocytes stimulated with 50% lupus serum were used in HITS assays. […] Importantly, these experiments were performed with SLE serum from patients with well characterized biochemical profiles.
SLE patient and control serum were purchased from Bioreclamation (Hicksville, N.Y.). IFN-α 2a was obtained from PBL Biomedical laboratories (Piscataway, N.J.). Fresh PBMCs from healthy donor were prepared by Ficoll-hypaque fraction according to the manufactory's instruction. Cells were cultured at 2×10^5 cells/0.1 ml in 96-well flat-bottomed plates in culture medium.
To determine the effect of compounds on gene expression, compounds and vehicle controls were pre-incubated with cells for 30 min at 37° C. before stimulation with 50% lupus serum or 100 IU/ml IFN-α 2a were incubated with PBMC. After 6 h stimulation, cells were lysed in Qiagen 2XTCL lysis buffer followed by HITS analysis (see FIG. 2).

[3] = test system: freshly isolated monocytes; assay: Cytotoxicity at the concentration used in the SLE serum monocyte assay; format: cell-based, human; settings: 1 μm
IP-10 [4] = assay: IFN-α induced IP-10 secretion from human monocytes; format: cell-based; settings: 500 IU/ml IFN-α, 48 h (FIG. 6A)
Description: as §1, §2, §3

IFN-α signaling pathway = assay: High-Throughput Integrated Transcriptional Screening (HITS), qPCR of IFN-α signature gene set in THP-1 cells; format: cell-based, human; settings: compound 10 μM, 100 IU/ml IFN-α 4 h, a gene inhibited by more than 50% gets its maximum score, scores added, hit if greater than 50% of maximum
Description: The unique gene expression signature of the IFN-α signaling pathway was established in THP-1 cells by comparing the gene profiles of the fully activated IFNα pathway to the basal gene expression. THP-1 cells were stimulated either with 100 IU/ml IFN-α, 100 IU/ml IFN-γ, or 10 ng/ml TNF-α to generate the activated pathway gene signatures.
In one embodiment, the compounds of Table 1 were used to identify different mechanisms of action as identified from primary screening. If a gene is inhibited by more than 50% then it receives its maximum score (all or none type of scoring).
THP-1 cells seeded at 8×10^5 cells/ml were treated with either compound (10 μM final concentration) or vehicle control (0.1% DMSO) for 30 minutes prior to a four hour stimulation with 100 IU/ml IFN-α or PBS. Plates were incubated at 37° C. in a humidified incubator. Cell lysis and RNA isolation were carried out according to the manufacturer's instructions (TurboCapture mRNA Kit, Qiagen Inc.). PCR primer pairs were designed for each of the genes identified through the global gene expression analysis using Primer 3 based method (see below for primer sequences). Each primer was evaluated for the efficient production of a single band of appropriate size in the presence of template RNA and the lack of distinct amplification products in a non-template control. Real time PCR reactions were carried out in SYBR green master mix (Quanta biosciences) on ABI9700 thermocyclers.
We used the house keeping gene, GAPDH, as the normalization control for the IFN-α gene signature set to correct the overall variability in the qPCR based HITS process. The corrected profiles were then normalized to the basal gene expression levels determined by using the vehicle only treatments. We subtracted the vehicle only control gene value from the test compound gene profiles, gene per gene (see FIG. 1).

IP-10 [5] = assay: IFN-α induced chemokine release in vivo (adenovirus IFN-α5, serum IP-10 ELISA); parameters: species or system Female NZBW/F1 mice
Description: as §1
Next, the effect of IKK-2 inhibitor IV in IP-10 and MCP-1 expression was examined in vivo. To induce IP-10 and MCP-1 expression, mice were infected with adenovirus encoding IFN-α5. As a result, IP-10 but not MCP-1 levels were detected in serum (data not shown). […]
Female NZBW/F1 mice (Jackson Laboratories, Bar Harbor, Me.) were housed in pathogen-free conditions with access to food and water. […] Serum levels of IP10 were assessed by ELISA (R&D Systems, Minneapolis, Minn.). […]

HSV-1 = assay: In vitro anti-viral assay, HSV-1/luciferase replication in Hep-2 cells with IFN-α; format: cell-based, Herpes Simplex Virus-1
Description: Hep-2 cells were seeded at 2×10^4 cells/well in 96 well plates. Cells were infected with HVS1 at an Multiplicity Of Infection (MOI) of 5 for 1 h at 37° C. 24 hours post-seeding. Virus was aspirated, cells were washed, and 200 μl of medium with or without IFN-α or compound were added as indicated. After 48 h, cells were washed, lysed and luciferase activity were measured according to the manufacturer's instructions. […] Each bar represents the mean+/−SEM of triplicates from one experiment.
Herpes Simplex Virus-1 (HSV-1) represents one of the major recurrent virus infections observed in SLE patients^37. Type-I and Type-II IFN signals are known to block HSV-1 dissemination in mice^38, and as a consequence, a therapeutic approach that neutralizes their combined activity may constitute an important safety concern. Therefore, the impact of Apicidin 1a, IKK2 inhibitor IV, and JAK inhibitors on HSV-1 replication regulated by IFN-α in Hep-2 cells was examined in vitro. HSV-1/luciferase was used to infect Hep-2 cells, and viral replication was monitored by luciferase expression.
Hep-2 cells were propagated in MEM (Invitrogen) with 10% fetal bovine serum. HSV-1 recombination virus with both firefly and Renilla luciferase genes in a divergent orientation from a single multiple cloning site were a gift from Dr. Leib's lab. Hep-2 cells were seeded at 2×10^4 cells/well in 96 well plate, 24 h post seeding, cells were infected with virus at an MOI of 5, after absorption for 1 h at 37° C., free viral particles were removed by aspiration, cells were washed, and 200 μl medium containing IFN-α with or without test compounds. After 48 h incubation, cells were washed and lysed in 20 μl of Passive Lysis Buffer (Promega Inc; Madison, Wis.) frozen, thawed, and assayed for firefly and Renilla luciferase activity using the Dual Luciferase Assay kit (Promega).

## CC(C)(C)c1nc2c3ccc(F)cc3c3c(=O)[nH]ccc3c2[nH]1 [Compound 7, JAK Inhibitor I]
MCP-1
  MCP-1 expression induced by IFN-α: restricted to the highest dose
[1]
  CD38 expression: dose-dependent inhibition
  CD80 expression: dose-dependent inhibition
  CD123 expression: dose-dependent inhibition
[2]
  Percentage inhibition of the six most robustly induced IFN-α signature genes induced by SLE serum: 60%
  Upregulation of the six most robustly induced IFN-α signature gene set by 50% lupus serum (in words): blocked the upregulation
[3]
  Cytotoxicity: did not exhibit cytotoxicity
IP-10 [4]
  Expression of IP-10 induced by IFN-α: block the expression of IP-10
IFN-α signaling pathway
  HTS Score: 0.9

## O=C(CCCCCN1C(=O)c2cccc3cccc(c23)C1=O)NO [Compound 3, scriptaid]
IFN-α signaling pathway
  HTS Score: 0.88

## NC(=O)Nc1sc(-c2ccc(F)cc2)cc1C(N)=O [Compound 5, IKK-2 Inhibitor IV]
IP-10 [5]; Female NZBW/F1 mice, 45 mg/kg BID, 6 h post-stimulation, ELISA (FIG. 6C)
  IFN-α induced IP-10 protein level in vivo (in words): blocked
IP-10 [5]; mice infected with adenovirus encoding IFN-α5, 6 h post-stimulation, IKK2 inhibitor 45 mg/kg BID, antibody i.p. 30 mg/kg
  Inhibition of levels of serum IP-10: 98%
MCP-1
  MCP-1 expression induced by IFN-α: restricted to the highest dose
[1]
  CD38 expression: dose-dependent inhibition
  CD80 expression: dose-dependent inhibition
  CD123 expression: dose-dependent inhibition
[2]
  Percentage inhibition of the six most robustly induced IFN-α signature genes induced by SLE serum: 77%
  Upregulation of the six most robustly induced IFN-α signature gene set by 50% lupus serum (in words): blocked the upregulation
[3]
  Cytotoxicity: did not exhibit cytotoxicity
IP-10 [4]
  Expression of IP-10 induced by IFN-α: block the expression of IP-10
IFN-α signaling pathway
  HTS Score: 0.95
HSV-1; MOI 5, 48 h, even at higher doses (FIG. 7A, 7B)
  Effect on IFN-α dependent anti-viral activity (HSV-1 replication): retained the majority of IFN-α dependent anti-viral activity

## Oxamflatin [Compound 1]
IFN-α signaling pathway
  HTS Score: 1

## C=CC(=O)C1=CC2C=CC=CC2C=C1 (stereo not drawn) [Compound 8, JAK3 Inhibitor V]
IFN-α signaling pathway
  HTS Score: 0.79

## CCC(=O)CCCCC[C@@H]1NC(=O)[C@H]2CCCCN2C(=O)C([C@@H](C)CC)NC(=O)[C@H](Cc2cn(OC)c3ccccc23)NC1=O (stereo partly drawn) [Compound 2, Apicidin]
MCP-1
  MCP-1 expression induced by IFN-α: totally neutralizes MCP-1 expression
[1]
  CD38 expression: limited to the highest dose of 1 μM
  CD80 expression: blocks CD80 expression
  CD123 expression: limited to the highest dose of 1 μM
[2]
  Percentage inhibition of the six most robustly induced IFN-α signature genes induced by SLE serum: 80%
  Upregulation of the six most robustly induced IFN-α signature gene set by 50% lupus serum (in words): blocked the upregulation
[3]
  Cytotoxicity: did not exhibit cytotoxicity
IP-10 [4]
  Expression of IP-10 induced by IFN-α: no neutralization
IFN-α signaling pathway
  HTS Score: 0.89
HSV-1; HSV-1, 0.1 μm (FIG. 7C)
  Effect on anti-viral effects of IFN-α at low dose: inhibited anti-viral effects of IFN-α
HSV-1; HSV-1, higher dose where MCP-1 production is inhibited (FIG. 7C)
  IFN-α dependent anti-viral activity at higher dose: abolished or viral growth was actually promoted

## CC(/C=C/C(=O)NO)=C\[C@@H](C)C(=O)c1ccc(N(C)C)cc1 [Compound 4, Trichostatin A]
IFN-α signaling pathway
  HTS Score: 1

Reference: US20100093611A1, “COMPOUNDS AND METHODS FOR TREATING OR PREVENTING AUTOIMMUNE DISEASES” (priority 2007, published 2010)
